The results in this text go back to patent publication EP3720857B1, “2-OXO-5H-CHROMENO[4,3-B]PYRIDINES FOR USE IN THE TREATMENT OF HEPATITIS B” (Galapagos NV, priority 2017, dated 2019).

Assay [1] deals with hepatitis virus B (HBV) infection. Kind of assay: iCell hepatocytes assay, standard assay (HBc staining, HBe ELISA, HBs ELISA). Conditions: for EC50: Hepatitis B virus, Hepatocyte. It counts as cell-based. As to the method:
(§1) The principle of the iCell hepatocyte 2.0 96 well assay is to evaluate the inhibitory effect of a test compound on hepatitis virus B (HBV) infection. In this assays the HBV core antigen (HBcAg) and/or extracellular antigen (HBeAg) and/or surface antigen (HBsAg) are used as a marker for HBV infection. Nuclei count may be used as an indication for compound toxicity.
(§2) In the standard assay set-up HBV infection and compound addition are performed on the same day, in the delayed assay the compounds are added three days after HBV infection. iCell hepatocytes 2.0 are human hepatocytes derived from induced pluripotent stem cells (iPSc) purchased from Cellular Dynamics international (CDI, R1027).
(§3) At day 0, iCell hepatocytes 2.0 (CDI, R1027) are thawed and seeded in collagen I coated 96well plates at 112 000c/well (100µL) in plating medium (RPMI supplemented with B27 supplement, 20 ng/mL recombinant human oncostatin M (OSM), 25µg/mL gentamicin, 0.1µM Dexamethasone and iCell medium supplement provided by CDI). Plates are incubated at 37°C, 5% CO2 and daily refreshed with plating medium for the following four days.
(§4) On day 5 and 6, plates are refreshed with 100µL maintenance medium (RPMI supplemented with B27 supplement, 25µg/mL gentamicin, 0.1µM Dexamethasone, and iCell medium supplement provided by CDI) and incubated at 37°C, 5% CO2 until the following day.
On day 7 (day of infection) the supernatant is removed from the assay plates and 25 µL of 1/250 diluted compound in maintenance medium and 25 µL of HBV mix (HBV virus, 8% PEG, 0% or 4% DMSO in maintenance medium) are added to the assay plates. Compounds series are either prepared manually as a 6 point serial dilution using 1/5 dilution steps in 100% DMSO or as an 8 point serial dilution using 1/3 dilution steps in 100% DMSO or as an 8 point serial dilution using ¼ dilution steps, normalized for 0.2% DMSO. The assay plates were incubated overnight at 37°C, 5% CO2.
On day 1 post infection (day 8) 50 µL of HBV/cpd mix is removed from the assay plates and refreshed with 100 µL of compound series diluted 1/500 in maintenance medium. The assay plates are incubated at 37°C, 5% CO2 and refreshed with compound series diluted 1/500 in maintenance medium every other day (at day 3 and day 5 post infection) or after three days of incubation (at day 4 post infection).
At day 7 post infection (day 14), 100µL of supernatant is harvested and frozen at -20°C. The cells were fixed with 50 µL of 3.7% formaldehyde and incubated for 30 min at room temperature. After fixation, cells are washed four times with phosphate buffer saline (PBS) with the plate washer (Select 405, microplate washer, Biotek) and subjected to HBc staining. The harvested supernatant is used for HBe and/or HBs ELISA.
(§5) The assay plates are blocked with blocking buffer (2% FBS, 3% BSA, 0.2% TritonX100 in PBS) for 1 h at room temperature.
(§6) After blocking, the assay plates are tapped manually and incubated with 50 µL diluted primary antibody (1/700 Rabbit-anti-HBc Ag, Dako, B0586 or 1/350 Rabbit-anti-HBc Ag, Invitrogen, PA516368) in blocking buffer and incubated for 90 min at room temperature.
(§7) After 4 washes of PBST (1XPBS + 0.05% Tween) with the plate washer, the assay plates are incubated with 100 µL of secondary antibody (Donkey-anti-rabbit Alexa 488, Lifetechnologies, A21206) 1/500 diluted in blocking buffer and incubated for 60 min at room temperature in the dark, then washed 4 times with PBST on the plate washer and incubated with 100µL of DAPI (Sigma D9542, stock 5mg/mL) 1/10000 diluted in PBS for 15-30 min at room temperature in the dark.
Finally, the assay plates are read out on a InCell Analyzer 2200 (GE Healthcare).
A white lumitrac 600 384 well plate iss coated with 40µL of capture antibody (monoclonal Mouse-anti-HBe Ag, Fitzgerald, 10-H10) diluted 1/2000 in coating buffer (0.1M sodium carbonate pH 9.5) and incubated overnight at 4°C. […]
A general note: ELISA stands for enzyme-linked immunosorbent assay.

For assay [2] the test system is unchanged. Kind of assay: iCell hepatocytes assay, delayed assay (compounds added three days after HBV infection). It counts as cell-based. The conditions noted are these: for EC50: Hepatitis B virus, Hepatocyte, HBs ELISA. The procedure:
as §1, §2, §3, §4
On day 7 (day of infection), the maintenance medium is removed from the assay plates and cells are infected with 50 µL of HBV mix (HBV virus, 4% PEG, 0% or 2% DMSO in maintenance medium). The assay plates were incubated overnight at 37°C, 5% CO2.
At day 1 post infection (day8), 50µL of HBV mix is removed from the assay plates and refreshed with 100 µL of maintenance medium. The assay plates are incubated at 37°C, 5% CO2 for three days.
At day 4 post infection (day 11) and day 7 post infection (day14), the supernatant is removed and 100 µL of compound series diluted 1/500 in maintenance medium is added to the assay plates (8 point serial dilution using 1/3 dilution steps in 100% DMSO or 8 point serial dilution using ¼ dilution steps, normalized for 0.2% DMSO. The assay plates were incubated at 37°C, 5% CO2 for three days.
At day 10 post infection (day 17), 100µL of supernatant is harvested and frozen to -20°C. The cells are fixed with 50 µL of 3.7% formaldehyde and incubated for 30 min at room temperature. After fixation, cells are washed four times with phosphate buffer saline (PBS) with the plate washer (Select 405, microplate washer, Biotek) and subjected to HBc staining. harvested supernatant is used for HBe and/or HBs ELISA.
as §5, §6, §7
Finally, the assay plates are read out on a InCell Analyzer 2200 (GE Healthcare). […]
After blocking, 30 µL of sample and HBe Ag standard (recombinant hepatitis B virus E antigen protein, 4mg/mL, Abcam, ab91273) are added to the plate. The HBe Ag standard is 1/3 diluted in blocking buffer starting from 1.25µg/mL. A vehicle control is also included. The plate is incubated for 30 min at room temperature.
After sample incubation, the plates are washed 4 times with PBST on a platewasher followed by 2 washed of PBS. […]

The structures appear in SMILES notation. Some results are limits rather than exact numbers.

`COCCCOc1cc2c(cc1F)-c1c(cc(C(=O)O)c(=O)n1C1CC1)C(C(C)C)O2` (stereo not drawn) [Compound 1, 1-cyclopropyl-9-fluoro-5-isopropyl-8-(3-methoxypropoxy)-2-oxo-5H-chromeno[4,3-b]pyridine-3-carboxylic acid]: in assay [1], the “Standard assay HBs ELISA % inhibition” value is given as “++ (50-75%)” and the EC50 (usually the concentration needed to bring the measured effect to its halfway point) lay in the range of 0.001 to 20 nM. In addition, in assay [2], the “Delayed assay HBs ELISA % inhibition” value is listed as “++ (50-75%)” and the half-maximal effective concentration (EC50) is 0.001 to 20 nM.
Take `COCCCOc1cc2c(cc1Cl)-c1c(cc(C(=O)O)c(=O)n1C1CC1)CO2` [Compound 6, 9-chloro-1-cyclopropyl-8-(3-methoxypropoxy) -2-oxo-5H-chromeno[4,3-b]pyridine-3-carboxylic acid]: in assay [1], the “Standard assay HBs ELISA % inhibition” value is listed as “+++ (75-100%)” and the half-maximal effective concentration (EC50) is 0.001 to 20 nM. In assay [2], the “Delayed assay HBs ELISA % inhibition” value is listed as “++ (50-75%)” and the concentration giving a half-maximal response (EC50) was in the range of 22 to 50 nM.
For `CCC1Oc2cc(OCCCOC)c(F)cc2-c2c1cc(C(=O)O)c(=O)n2C1CC1` (stereo not drawn) [Compound 16, 1-cyclopropyl-5-ethyl-9-fluoro-8-(3-methoxypropoxy) -2-oxo-5H-chromeno[4,3-b]pyridine-3-carboxylic acid], in assay [1], the “Standard assay HBs ELISA % inhibition” value is reported as “++ (50-75%)” and the EC50 lay within 22 to 50 nM. Also, in assay [2], the “Delayed assay HBs ELISA % inhibition” value was “++ (50-75%)” and the EC50 is 22 to 50 nM.
For the molecule `COCCCOc1cc2c(cc1Cl)-c1c(cc(C(=O)O)c(=O)n1C1CC1)C(C(C)(C)COC)O2` (stereo not drawn) [Compound 19, 9-chloro-1-cyclopropyl-5-(2-methoxy-1,1-dimethyl-ethyl)-8-(3-methoxypropoxy) -2-oxo-5H-chromeno[4,3-b]pyridine-3-carboxylic acid], in assay [1], the “Standard assay HBs ELISA % inhibition” value was “++ (50-75%)” and the 50% effective concentration (EC50) lay in the range of 22 to 50 nM. Also, in assay [2], the “Delayed assay HBs ELISA % inhibition” value is reported as “++ (50-75%)” and the 50% effective concentration (EC50) was in the range of 22 to 50 nM.
As to `COCCCOc1cc2c(cc1F)-c1c(cc(C(=O)O)c(=O)n1C1CC1)[C@H](C(C)C)O2` [Compound 44, (5S)-1-cyclopropyl-9-fluoro-5-isopropyl-8-(3-methoxypropoxy)-2-oxo-5H-chromeno[4,3-b]pyridine-3-carboxylic acid], in assay [1], the “Standard assay HBs ELISA % inhibition” value is on record as “++ (50-75%)” and the concentration giving a half-maximal response (EC50) is 22 to 50 nM. Moreover, in assay [2], the “Delayed assay HBs ELISA % inhibition” value is “++ (50-75%)” and the EC50 was more than 50 nM.
In the case of `COCCCOc1cc2c(cc1Cl)-c1c(cc(C(=O)O)c(=O)n1C1CC1)[C@H](C1(C)COC1)O2` [Compound 46, (5R)-9-chloro-1-cyclopropyl-8-(3-methoxypropoxy)-5-(3-methyloxetan-3-yl)-2-oxo-5H-chromeno[4,3-b]pyridine-3-carboxylic acid], in assay [1], the “Standard assay HBs ELISA % inhibition” value was “+++ (75-100%)” and the EC50 fell in the range of 0.001 to 20 nM. For the same molecule, in assay [2], the “Delayed assay HBs ELISA % inhibition” value is “++ (50-75%)” and the concentration for a half-maximal effect (EC50) fell in the range of 0.001 to 20 nM.
